# Test results from US20060083790A1, “Combination of an ibat inhibitor and a metal salt for the treatment of diarrhoea” (priority 2002, published 2006).
# Where two headings read alike, the source gives them in different places.
# Legend:
# [1] = 200 mg crystalline calcium phosphate in 10 ml, initial DC 1-20 mM, pH 7.4, all samples
# Experimental: A stock solution of sodium deoxycholate (DC) was prepared by dissolving the following substances in deionised water:
# (§1) The pH was adjusted to 7.4 with sodium hydroxide.
# (§2) A similar buffer solution with the same content, except for the bile acid was also prepared.
# The resulting initial DC concentrations in the samples were 1-20 mM. The samples were equilibrated for several hours. The solid material in the samples were removed by centrifugation and/or filtration, and the obtained clear supernatants were analysed with respect to DC content. The analyses were carried out by HPLC.
# [2] = 200 mg crystalline calcium phosphate in 10 ml, initial GDC 1-15 mM, pH 7.4, all samples
# Experimental: A stock solution of sodium glycodeoxycholate (GDC) was prepared by dissolving the following substances in deionised water:
# as §1, §2
# The resulting initial GDC concentrations in the samples were 1-15 mM. The samples were equilibrated for several hours. The solid material in the samples were removed by centrifugation and/or filtration, and the obtained clear supernatants were analysed with respect to GDC content. The analyses were carried out by HPLC.
# [3] = for Absorbance (taurocholate concentration after the enzymatic colour reaction): pH 6.5, supernatant
# Experimental: A solution simulating the human intestinal fluid in the fasted state, FaSSIF, was prepared by dissolving the following components in deionised water.
# The pH was adjusted to 6.5.
# A separate solution of calcium chloride was prepared by dissolving 149.2 mM of the salt in deionised water.
# 5.0 ml of FaSSIF was added to each of 7 glass vials. A known volume, varying from 0 to 0.5 ml, of the calcium chloride solution was added to each vial. Each sample was inspected visually immediately after the calcium chloride addition.
# A volume of 1.0 ml was withdrawn from each sample and centrifuged for 20 mins at 14 000 rpm. The clear supernatant of each sample was collected and analysed with respect to bile acid content. The analyses were carried out using a bile acid analysis kit which employs an enzymatic colour reaction. The concentration of bile acid is proportional to the colour intensity which is determined by spectrophotometry.
# [4] = for Concentration of bile acids: pH 7.4, supernatant
# Experimental: A solution containing a mixture of bile acids was prepared by dissolving the following components in deionised water:
# The pH was adjusted to 7.4.
# A calcium chloride solution was prepared by dissolving the following components in deionised water:
# 2.0 ml of the bile acid solution was added to each of 6 glass vials. A known volume, varying from 0 to 300 μl, of the calcium chloride solution was added to each vial. Each sample was inspected visually immediately after the calcium chloride addition. 1.5 ml of each sample was transferred into a centrifugation tube and centrifuged for 20 mins at 14 000 rpm. The clear supernatant was collected and analysed with respect to bile acid content. The analyses were carried out using a bile acid analysis kit which employs an enzymatic colour reaction. The concentration of bile acid is proportional to the colour intensity which is determined by spectrophotometry.
# [5] = dog
# Experimental: The IBAT inhibitor is dosed orally at a dose that will cause diarrhoea, for example 25-50 μmol/kg. The metal salt is then introduced into the colon, through the fistulae, to see if the diarrhoea can be prevented. The dose of the metal salt varies and can be determined after analysing the bile acid concentration in faeces from dogs having been exposed to the same dose of the IBAT inhibitor.
# A solution of an BAT inhibitor was administered directly into the stomach of the dog via an orogastric tube (t=0 hours). The dog was fed 30 minutes after the administration of the IBAT inhibitor (t=0.5 hours).
# Faeces was collected during the first 8 hours after administration, and the time for each bowel movement was recorded. Each faeces sample was homogenized with a high-shear mixer and, subsequently, centrifuged in order to separate the solid material from the faecal water phase. The faecal water was collected and analysed with respect to bile acid content. The amount of bile acid in the faecal water was related to the amount of solid material in each faeces sample.
# [6] = with increasing added amount of calcium chloride
Molecule,DC concentration in supernatant (HPLC) [1],GDC concentration in supernatant (HPLC) [2],Absorbance (taurocholate concentration after the enzymatic colour reaction) ([3]; 7.5 μmol calcium chloride added to 5.0 ml FaSSIF),Absorbance (taurocholate concentration after the enzymatic colour reaction) ([3]; 14.9 μmol calcium chloride added to 5.0 ml FaSSIF),Absorbance (taurocholate concentration after the enzymatic colour reaction) ([3]; 22.4 μmol calcium chloride added to 5.0 ml FaSSIF),Absorbance (taurocholate concentration after the enzymatic colour reaction) ([3]; 29.8 μmol calcium chloride added to 5.0 ml FaSSIF),Absorbance (taurocholate concentration after the enzymatic colour reaction) ([3]; 44.8 μmol calcium chloride added to 5.0 ml FaSSIF),Absorbance (taurocholate concentration after the enzymatic colour reaction) ([3]; 74.6 μmol calcium chloride added to 5.0 ml FaSSIF),"Visual inspection immediately after calcium chloride addition ([3]; FaSSIF, all samples with calcium chloride)","Concentration of taurocholate in the aqueous solution, trend [3, 6]",Concentration of bile acids ([4]; 3.0 μmol calcium chloride added to 2.0 ml bile acid solution) [mM],Concentration of bile acids ([4]; 6.0 μmol calcium chloride added to 2.0 ml bile acid solution) [mM],Concentration of bile acids ([4]; 12.0 μmol calcium chloride added to 2.0 ml bile acid solution) [mM],Concentration of bile acids ([4]; 30.0 μmol calcium chloride added to 2.0 ml bile acid solution) [mM],Concentration of bile acids ([4]; 60.1 μmol calcium chloride added to 2.0 ml bile acid solution) [mM],"Visual inspection immediately after calcium chloride addition ([4]; bile acid mixture, all samples with calcium chloride)","Concentration of bile acids in the aqueous solution, trend [4, 6]","Bile acid concentration in faecal water ([5]; IBAT inhibitor into the stomach at t=0, intracolonic calcium chloride at t=1 hour, as long as calcium chloride is present in the colon)","Time after which most of the calcium chloride has been removed from the colon ([5]; intracolonic administration, removed by absorption or by bowel movements)"
calcium phosphate,reduced by the presence of calcium phosphate in all samples,reduced by the presence of calcium phosphate in all samples,,,,,,,,,,,,,,,,,
[Ca+2].[Cl-].[Cl-] [calcium chloride],,,0.0933,0.0890,0.0843,0.0783,0.0735,0.0718,A precipitate was formed in all samples,decreased with increasing added amount of calcium chloride,2.2,2.1,1.9,0.8,0.7,a precipitate was formed in all samples,decreased with increasing added amount of calcium chloride,relatively constant,approximately 3.5 hours
